# Laboratory results: BindingDB's records for doi:10.1021/jm00055a007 (Abbott Laboratories, 1993)
# Square brackets hold non-standard residues; d marks the D form. Peptide text beside a SMILES is read from it. pGlu = O=C1CC[C@@H](C(=O)O)N1; NMeS = CN[C@@H](CO)C(=O)O
# Target: Gonadotropin-releasing hormone receptor (Rattus norvegicus) (UniProt P30969)
# Sequence (P30969 whole entry, looked up): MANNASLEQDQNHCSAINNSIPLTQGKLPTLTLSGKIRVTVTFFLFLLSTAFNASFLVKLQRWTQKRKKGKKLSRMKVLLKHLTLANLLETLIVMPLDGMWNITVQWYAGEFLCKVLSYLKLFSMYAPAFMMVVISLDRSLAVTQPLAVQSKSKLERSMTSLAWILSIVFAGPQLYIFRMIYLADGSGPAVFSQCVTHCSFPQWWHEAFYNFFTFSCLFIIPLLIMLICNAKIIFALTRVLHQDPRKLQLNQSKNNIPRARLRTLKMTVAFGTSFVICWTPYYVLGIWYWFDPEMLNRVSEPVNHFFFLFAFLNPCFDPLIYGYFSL
row,SMILES,Ki [nM]
1,CCNC(=O)[C@@H]1CCCN1C(=O)[C@H](CCCN=C(N)N)NC(=O)[C@H](CC(C)C)NC(=O)[C@@H](CC(C)C)NC(=O)[C@H](Cc1ccc(O)cc1)NC(=O)[C@H](CO)NC(=O)[C@H](Cc1cccc2ccccc12)N(C)C(=O)[C@H](Cc1c[nH]cn1)NC(=O)[C@@H]1CCC(=O)N1 [leuprolide 3NMe1Nal],3.24
2,CCNC(=O)[C@@H]1CCCN1C(=O)[C@H](CCCN=C(N)N)NC(=O)[C@H](CC(C)C)N(C)C(=O)[C@@H](Cc1c[nH]c2ccccc12)NC(=O)[C@H](Cc1ccc(O)cc1)NC(=O)[C@H](CO)NC(=O)[C@H](Cc1c[nH]c2ccccc12)NC(=O)[C@H](Cc1cnc[nH]1)NC(=O)[C@@H]1CCC(=O)N1 [deslorelin 7NMeLeu],0.06
3,CCNC(=O)[C@@H]1CCCN1C(=O)[C@H](CCCN=C(N)N)NC(=O)[C@H](CC(C)C)NC(=O)[C@@H](Cc1c[nH]c2ccccc12)NC(=O)[C@H](Cc1ccc(O)cc1)NC(=O)[C@H](CO)NC(=O)[C@H](Cc1c[nH]c2ccccc12)NC(=O)[C@H](Cc1cnc[nH]1)NC(=O)[C@@H]1CCC(=O)N1 [deslorelin],0.01
4,CC(C)C[C@H](NC(=O)[C@@H](Cc1ccc2ccccc2c1)N(C)C(=O)[C@H](Cc1ccc(O)cc1)NC(=O)[C@H](CO)NC(=O)[C@H](Cc1c[nH]c2ccccc12)NC(=O)[C@H](Cc1c[nH]cn1)NC(=O)[C@@H]1CCC(=O)N1)C(=O)N[C@@H](CCCN=C(N)N)C(=O)N1CCC[C@H]1C(=O)NCC(N)=O [nafarelin 6NMe2Nal],2.69
5,CCNC(=O)[C@@H]1CCCN1C(=O)[C@H](CCCN=C(N)N)NC(=O)[C@H](CC(C)C)N(C)C(=O)[C@@H](CC(C)C)NC(=O)[C@H](Cc1ccc(O)cc1)NC(=O)[C@H](CO)NC(=O)[C@H](Cc1c[nH]c2ccccc12)NC(=O)[C@H](Cc1c[nH]cn1)NC(=O)[C@@H]1CCC(=O)N1 [leuprolide 7NMeLeu],0.16
6,CC(C)C[C@H](NC(=O)[C@@H](Cc1ccc2ccccc2c1)NC(=O)[C@H](Cc1ccc(O)cc1)NC(=O)[C@H](CO)NC(=O)[C@H](Cc1c[nH]c2ccccc12)NC(=O)[C@H](Cc1c[nH]cn1)NC(=O)[C@@H]1CCC(=O)N1)C(=O)N(C)[C@@H](CCCN=C(N)N)C(=O)N1CCC[C@H]1C(=O)NCC(N)=O [nafarelin 8NMeArg],28.2
7,CCNC(=O)[C@@H]1CCCN1C(=O)[C@H](CCCN=C(N)N)NC(=O)[C@H](CC(C)C)NC(=O)[C@@H](CC(C)C)N(C)C(=O)[C@H](Cc1ccc(O)cc1)NC(=O)[C@H](CO)NC(=O)[C@H](Cc1c[nH]c2ccccc12)NC(=O)[C@H](Cc1cnc[nH]1)NC(=O)[C@@H]1CCC(=O)N1 [leuprolide 6NMeDLeu],3.8
8,CCNC(=O)[C@@H]1CCCN1C(=O)[C@H](CCCN=C(N)N)NC(=O)[C@H](CC(C)C)NC(=O)[C@@H](CC(C)C)NC(=O)[C@H](Cc1ccc(O)cc1)NC(=O)[C@H](CO)NC(=O)[C@H](Cc1c[nH]c2ccccc12)NC(=O)[C@H](Cc1ccccc1)NC(=O)[C@@H]1CCC(=O)N1 [leuprolide 2 Phe] ([pGlu]FWSY[dL]LRP-NHEt),2.19
9,CC(C)C[C@H](NC(=O)[C@@H](Cc1ccc2ccccc2c1)NC(=O)[C@H](Cc1ccc(O)cc1)NC(=O)[C@H](CO)NC(=O)[C@H](Cc1c[nH]c2ccccc12)NC(=O)[C@H](Cc1c[nH]cn1)NC(=O)[C@@H]1CCC(=O)N1)C(=O)N[C@@H](CCCNC(=N)N)C(=O)N1CCC[C@H]1C(=O)NCC(N)=O [nafarelin],0.01
10,CCNC(=O)[C@@H]1CCCN1C(=O)[C@H](CCCN=C(N)N)NC(=O)[C@H](CC(C)C)NC(=O)[C@@H](Cc1c[nH]c2ccccc12)NC(=O)[C@H](Cc1ccc(O)cc1)NC(=O)[C@H](CO)NC(=O)[C@H](Cc1cccc2ccccc12)N(C)C(=O)[C@H](Cc1c[nH]cn1)NC(=O)[C@@H]1CCC(=O)N1 [deslorelin 3NMe1Nal],1
11,CCNC(=O)[C@@H]1CCCN1C(=O)[C@H](CCCN=C(N)N)N(C)C(=O)[C@H](CC(C)C)NC(=O)[C@@H](CC(C)C)NC(=O)[C@H](Cc1ccc(O)cc1)NC(=O)[C@H](CO)NC(=O)[C@H](Cc1c[nH]c2ccccc12)NC(=O)[C@H](Cc1c[nH]cn1)NC(=O)[C@@H]1CCC(=O)N1 [leuprolide 8NMeArg],347
12,CCNC(=O)[C@@H]1CCCN1C(=O)[C@H](CCCN=C(N)N)NC(=O)[C@H](CC(C)C)NC(=O)[C@@H](CC(C)C)NC(=O)[C@H](Cc1ccc(O)cc1)NC(=O)[C@H](CO)N(C)C(=O)[C@H](Cc1c[nH]c2ccccc12)NC(=O)[C@H](Cc1c[nH]cn1)NC(=O)[C@@H]1CCC(=O)N1 [leuprolide 4NMeSer] ([pGlu]HW[NMeS]Y[dL]LRP-NHEt),1.41
13,CC(C)C[C@H](NC(=O)[C@@H](Cc1ccc2ccccc2c1)NC(=O)[C@H](Cc1ccc(O)cc1)NC(=O)[C@H](CO)NC(=O)[C@H](Cc1c[nH]c2ccccc12)NC(=O)[C@H](Cc1ccccc1)NC(=O)[C@@H]1CCC(=O)N1)C(=O)N[C@@H](CCCN=C(N)N)C(=O)N1CCC[C@H]1C(=O)NCC(N)=O [nafarelin 2Phe],0.07
14,CC(C)C[C@H](NC(=O)[C@@H](Cc1c[nH]c2ccccc12)NC(=O)[C@H](Cc1ccc(O)cc1)NC(=O)[C@H](CO)NC(=O)[C@H](Cc1c[nH]c2ccccc12)NC(=O)[C@H](Cc1c[nH]cn1)NC(=O)[C@@H]1CCC(=O)N1)C(=O)N[C@@H](CCCN=C(N)N)C(=O)N1CCC[C@H]1C(=O)N(C)CC(N)=O [deslorelin 10SarNH2],0.32
15,CCNC(=O)[C@@H]1CCCN1C(=O)[C@H](CCCN=C(N)N)N(C)C(=O)[C@H](CC(C)C)NC(=O)[C@@H](Cc1c[nH]c2ccccc12)NC(=O)[C@H](Cc1ccc(O)cc1)NC(=O)[C@H](CO)NC(=O)[C@H](Cc1c[nH]c2ccccc12)NC(=O)[C@H](Cc1cnc[nH]1)NC(=O)[C@@H]1CCC(=O)N1 [deslorelin 8NMeArg],0.31
16,CCNC(=O)[C@@H]1CCCN1C(=O)[C@H](CCCN=C(N)N)NC(=O)[C@H](CC(C)C)NC(=O)[C@@H](CC(C)C)NC(=O)[C@H](Cc1ccc(O)cc1)NC(=O)[C@H](CO)NC(=O)[C@H](Cc1c[nH]c2ccccc12)NC(=O)[C@H](Cc1cnc[nH]1)N(C)C(=O)[C@@H]1CCC(=O)N1 [leuprolide 2 NMeHis],33.1
17,CC(C)C[C@H](NC(=O)CNC(=O)[C@H](Cc1ccc(O)cc1)NC(=O)[C@H](CO)NC(=O)[C@H](Cc1c[nH]c2ccccc12)NC(=O)[C@H](Cc1cnc[nH]1)NC(=O)[C@@H]1CCC(=O)N1)C(=O)N[C@@H](CCCN=C(N)N)C(=O)N1CCC[C@H]1C(=O)NCC(=O)O [CAS_35263-73-1],1.26
18,CC(C)C[C@H](NC(=O)[C@@H](Cc1ccc2ccccc2c1)NC(=O)[C@H](Cc1ccc(O)cc1)N(C)C(=O)[C@H](CO)NC(=O)[C@H](Cc1c[nH]c2ccccc12)NC(=O)[C@H](Cc1c[nH]cn1)NC(=O)[C@@H]1CCC(=O)N1)C(=O)N[C@@H](CCCN=C(N)N)C(=O)N1CCC[C@H]1C(=O)NCC(N)=O [nafarelin 5NMeTyr],0.03
19,CCNC(=O)[C@@H]1CCCN1C(=O)[C@H](CCCN=C(N)N)NC(=O)[C@H](CC(C)C)NC(=O)[C@@H](Cc1c[nH]c2ccccc12)NC(=O)[C@H](Cc1ccc(O)cc1)NC(=O)[C@H](CO)NC(=O)[C@H](Cc1c[nH]c2ccccc12)NC(=O)[C@H](Cc1cnc[nH]1)N(C)C(=O)[C@@H]1CCC(=O)N1 [deslorelin 2NMeHis],1.41
20,CC(C)C[C@H](NC(=O)[C@@H](Cc1ccc2ccccc2c1)NC(=O)[C@H](Cc1ccc(O)cc1)NC(=O)[C@H](CO)NC(=O)[C@H](Cc1c[nH]c2ccccc12)NC(=O)[C@H](Cc1c[nH]cn1)NC(=O)[C@@H]1CCC(=O)N1)C(=O)N[C@@H](CCCN=C(N)N)C(=O)N1CCC[C@H]1C(=O)N(C)CC(N)=O [nafarelin 10SarNH2],0.03
